From US7410974B2, “Halogenated Quinazolinyl nitrofurans as antibacterial agents” (Ulysses Pharmaceutical Products, Inc., priority 2003, dated 2008)
≈ marks a conversion by molar mass, not a printed value. Where two headings read alike, the source gives them in different places.

Columns and labels:
M. smegmatis ATCC 19420 = test: MIC broth microdilution (NCCLS), fastidious bacteria; assay type: cell-based, Mycobacterium smegmatis; conditions: Mycolicibacterium smegmatis, ATCC19420, read after 48 hours
S. aureus MRSA COL [1] = test: MIC broth microdilution (NCCLS); assay type: cell-based, Staphylococcus aureus; conditions: S. aureus MRSA COL
Summary of the method: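 MHBCA, 10^5-10^6 CFU/ml, 2-fold serial dilutions, 24 h at 35° C. Growth read at 650 nm and visually. MIC = lowest concentration with no visible growth.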

E. coli ATCC 25922 [2] = test: MIC broth microdilution (NCCLS); assay type: cell-based, Escherichia coli
[3] = tested on: Y. enterocolytica ATCC 23715; test: MIC broth microdilution (NCCLS); assay type: cell-based, Yersinia enterocolytica; conditions: Yersinia, ATCC23715, read-out: MIC
Summary of the method: (§1)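 Susceptibility by NCCLS microdilution: checked inoculum 10^5-10^6 CFU/ml, 24 h at 35° C, and growth assessed at 650 nm and by eye. Haemophilus was tested in HTM medium and Listeria with laked horse blood, each incubated under 5% CO2.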

B. fragilis ATCC 25285 = test: MIC broth microdilution (NCCLS), anaerobic; assay type: cell-based; conditions: Bacteroides fragilis, ATCC25285; B. fragilis ATCC 25285; Wilkins Chalgren broth, anaerobic, 48 hours; read-out: MIC
Description: (§2) Minimal Inhibitory Concentration (MIC) Determination. Bacteria (primary strain panel, TABLE 1). Susceptibility tests were performed following the recommendations from the National Committee for Clinical Standards (NCCLS). The MICs were determined by a broth microdilution technique using a final volume of 100 μl of cation-adjusted Mueller Hinton Broth (MHBCA) and a bacterial inoculum of 10^5-10^6 Colony Forming Units (CFU)/ml. The inocula were verified and precisely determined by applying 10-μl drops of 10-fold dilutions onto Triptic Soy Agar plates. The CFU were counted after an incubation of 24 h at 35° C. Any experiment showing an inoculum that was more or less than 10^5-10^6 CFU/ml was rejected. Control antibiotics and test compounds were prepared at a concentration equivalent to 2-fold the highest desired final concentration. Compounds were then diluted directly in the 96-well microtiter plates by serial 2-fold dilutions using a multichannel pipette. Microtiter plates were incubated during 24 h at 35° C. and growth was recorded by using a microtiterplate reader at 650 nm as well as by visual observation. The MIC was defined as the lowest concentration of compound yielding no visible growth. […] Fastidious bacteria. The medium used for Listeria monocytogenes, Neisseria meningitidis, and Campylobacter jejuni was MHBCA containing 2% laked horse blood. The medium used for Haemophilus influenzae and Branhamella (Moraxella) catarrhalis was HTM as recommended by the NCCLS. Cultures of these fastidious bacteria were incubated at 35° C. in a 5% CO2 atmosphere. […] The medium used for Bacteroides fragilis was Wilkins Chalgren broth and growth was allowed under an anaerobic atmosphere at 35° C. for 48 hours.

S. typhimurium ATCC14028 = test: MIC broth microdilution (NCCLS); assay type: cell-based, Salmonella typhimurium; conditions: Salmonella enterica; S. typhimurium ATCC14028; read-out: MIC
Description: as §2

S. aureus MRSA COL [4] = test: Time-kill curves; assay type: cell-based, Staphylococcus aureus; conditions: data not shown
Description: (§3) Time-kill curves. The bactericidal action of compounds was also evaluated over time (time-kill curve experiments). A bacterial inoculum of 1×10^5-1×10^7 Colony Forming Units (CFU)/ml was prepared. The inocula were verified and precisely determined by applying 10-μl drops of 10-fold dilutions onto Triptic Soy Agar plates. The CFU were counted after an incubation of 24 h at 35° C. Any experiment showing an inoculum that was more or less than the desired range of CFU/ml was rejected. Time-kill curve experiments were performed in 30 ml of MHB placed in 50-ml shaking flasks over a period of 24 hours. Test compounds and control antibiotics were added at time 0 hour and, at each time point, a sample was removed from flasks and the CFU determined by plate counts as described above. CFU from compound-treated cultures were compared to CFU collected from the control flask without antibiotic. Test compounds and control antibiotics were assayed at the MIC or a multiple of the MIC as determined by a broth microdilution technique as described above.

S. aureus ATCC 29213 [5] = test: Time-kill curves; assay type: cell-based, Staphylococcus aureus; conditions: at their respective MIC or a multiple of the MIC
Description: as §3

A. baumannii ATCC 19606 = test: MIC broth microdilution (NCCLS); assay type: cell-based, Acinetobacter baumannii; conditions: Acinetobacter baumannii, ATCC19606, read-out: MIC
Summary of the method: as §1

E. faecalis ATCC 29212 = test: MIC broth microdilution (NCCLS); assay type: cell-based, Enterococcus faecalis; conditions: E. faecalis ATCC 29212
E. coli ATCC 25922 [6] = test: Time-kill curves; assay type: cell-based, Escherichia coli
Description: as §3

[7] = tested on: bacteria of the primary strain panel; test: MBCs compared with MICs over the strain panels; assay type: cell-based; conditions: most of the time, over tested strains
Description: Minimal Inhibitory Concentration (MIC) Determination. Bacteria (primary strain panel, TABLE 1). Susceptibility tests were performed following the recommendations from the National Committee for Clinical Standards (NCCLS). The MICs were determined by a broth microdilution technique using a final volume of 100 μl of cation-adjusted Mueller Hinton Broth (MHBCA) and a bacterial inoculum of 10^5-10^6 Colony Forming Units (CFU)/ml. The inocula were verified and precisely determined by applying 10-μl drops of 10-fold dilutions onto Triptic Soy Agar plates. The CFU were counted after an incubation of 24 h at 35° C. Any experiment showing an inoculum that was more or less than 10^5-10^6 CFU/ml was rejected. Control antibiotics and test compounds were prepared at a concentration equivalent to 2-fold the highest desired final concentration. […] Microtiter plates were incubated during 24 h at 35° C. and growth was recorded by using a microtiterplate reader at 650 nm as well as by visual observation. […]
Minimal Bactericidal Concentration (MBC). After the microtiter plates were read for the determination of the MIC, a 10-μl sample of each clear well (at least 5 wells without visible growth) was applied onto TSA plates for viable counts determination.
Petri dishes were incubated at 35° C. for exactly 24 h and bacterial colonies were counted.

S. aureus ATCC 29213 [8] = test: MIC broth microdilution (NCCLS); assay type: cell-based, Staphylococcus aureus; conditions: Staphylococcus aureus, ATCC29213; S. aureus ATCC 29213; read-out: MIC
[9] = Staphylococcus aureus, MRSA, read-out: MIC
[10] = Escherichia coli, ATCC25922, E. coli ATCC 25922 (Reference), read-out: MIC
[11] = Enterococcus faecalis, ATCC29212, read-out: MIC

With `O=[N+]([O-])c1ccc(C=Cc2nc(Nc3ccc(O)cc3)c3cc(F)ccc3n2)o1` [Compound V, 6-fluoro-2-[2-(5-nitro-2-furyl)vinyl]-4-(p-hydroxyanilino)-quinazoline] the MIC (M. smegmatis ATCC 19420) was 0.06 µg/mL (≈ 0.153 µM), the MIC (S. aureus MRSA COL [1]; [9]) was 0.015 µg/mL (≈ 0.0382 µM) and the MIC (E. coli ATCC 25922 [2]; E. coli ATCC 25922 (Reference), listed as Example I compound V) was 0.5 µg/mL (≈ 1.27 µM). The MIC (E. coli ATCC 25922 [2]; [10]) was 0.5 µg/mL (≈ 1.27 µM), the MIC [3] was 0.25 µg/mL (≈ 0.637 µM) and the MIC (B. fragilis ATCC 25285) was 0.016 µg/mL (≈ 0.0408 µM). For the same compound, the MIC (S. typhimurium ATCC14028) was 1 µg/mL (≈ 2.55 µM), the “bactericidal action (time-kill)” value (S. aureus MRSA COL [4]) was “similarly bactericidal” and the “bactericidal action compared with ciprofloxacin (time-kill)” value (S. aureus ATCC 29213 [5]) was “superior to ciprofloxacin”. For the same compound, the MIC (A. baumannii ATCC 19606) was 1 to 2 µg/mL (≈ 2.55 to 5.1 µM), the MIC (E. faecalis ATCC 29212; listed as Example I compound V) was 0.03 µg/mL (≈ 0.0765 µM) and the MIC (E. faecalis ATCC 29212; [11]) was 0.03 µg/mL (≈ 0.0765 µM). For the same compound, the “time to strongly bactericidal action (time-kill)” value (E. coli ATCC 25922 [6]; E. coli ATCC 25922, at the MIC or a multiple of the MIC, FIG. 2) was ≤ 2 h, the “bactericidal action compared with ciprofloxacin (time-kill)” value (E. coli ATCC 25922 [6]; E. coli, at their respective MIC or a multiple of the MIC) was “superior to ciprofloxacin” and the “MBCs relative to the MICs” value [7] was “equal to or only 2 to 4-fold higher than the MICs”. The MIC (S. aureus ATCC 29213 [8]) was 0.03 to 0.06 µg/mL (≈ 0.0765 to 0.153 µM).

Work on `O=C1CN(/N=C/c2ccc([N+](=O)[O-])o2)C(=O)N1` [Nitrofurantoin] yielded an MIC (M. smegmatis ATCC 19420) of 64 µg/mL (≈ 269 µM), an MIC (S. aureus MRSA COL [1]) of 8 to 16 µg/mL and an MIC (S. aureus MRSA COL [1]; [9]) of 16 µg/mL (≈ 67.2 µM). For the same compound, the MIC (E. coli ATCC 25922 [2]; E. coli ATCC 25922 (Reference)) was 8 to 16 µg/mL, the MIC (E. coli ATCC 25922 [2]; [10]) was 8 µg/mL (≈ 33.6 µM) and the MIC [3] was 64 µg/mL (≈ 269 µM). The MIC (S. typhimurium ATCC14028) was 32 µg/mL (≈ 134 µM), the MIC (A. baumannii ATCC 19606) was 128 µg/mL (≈ 537 µM) and the MIC (E. faecalis ATCC 29212; [11]) was 8 to 16 µg/mL (≈ 33.6 to 67.2 µM). It also gave an MIC (S. aureus ATCC 29213 [8]) of 16 µg/mL (≈ 67.2 µM).
